According to article PMC10466336, “Chemical Probe for Imaging of Polo-like Kinase 4 and Centrioles” (JACS Au, 2023):

Tests used:
[1] = molecular target: T1, GFP-Plk4(K41M) in transfected HeLa cells (Homo sapiens, UniProt O00444, K41M); assay: Live-cell confocal/STED imaging of overexpressed Plk4; type: cell-based; conditions: 500 nM, live-cell STED, HeLa GFP-Plk4(K41M), N = 5
T1 construct: expressed in transfected cells; host or cells: HeLa
T1 sequence (O00444 1-970 K41M): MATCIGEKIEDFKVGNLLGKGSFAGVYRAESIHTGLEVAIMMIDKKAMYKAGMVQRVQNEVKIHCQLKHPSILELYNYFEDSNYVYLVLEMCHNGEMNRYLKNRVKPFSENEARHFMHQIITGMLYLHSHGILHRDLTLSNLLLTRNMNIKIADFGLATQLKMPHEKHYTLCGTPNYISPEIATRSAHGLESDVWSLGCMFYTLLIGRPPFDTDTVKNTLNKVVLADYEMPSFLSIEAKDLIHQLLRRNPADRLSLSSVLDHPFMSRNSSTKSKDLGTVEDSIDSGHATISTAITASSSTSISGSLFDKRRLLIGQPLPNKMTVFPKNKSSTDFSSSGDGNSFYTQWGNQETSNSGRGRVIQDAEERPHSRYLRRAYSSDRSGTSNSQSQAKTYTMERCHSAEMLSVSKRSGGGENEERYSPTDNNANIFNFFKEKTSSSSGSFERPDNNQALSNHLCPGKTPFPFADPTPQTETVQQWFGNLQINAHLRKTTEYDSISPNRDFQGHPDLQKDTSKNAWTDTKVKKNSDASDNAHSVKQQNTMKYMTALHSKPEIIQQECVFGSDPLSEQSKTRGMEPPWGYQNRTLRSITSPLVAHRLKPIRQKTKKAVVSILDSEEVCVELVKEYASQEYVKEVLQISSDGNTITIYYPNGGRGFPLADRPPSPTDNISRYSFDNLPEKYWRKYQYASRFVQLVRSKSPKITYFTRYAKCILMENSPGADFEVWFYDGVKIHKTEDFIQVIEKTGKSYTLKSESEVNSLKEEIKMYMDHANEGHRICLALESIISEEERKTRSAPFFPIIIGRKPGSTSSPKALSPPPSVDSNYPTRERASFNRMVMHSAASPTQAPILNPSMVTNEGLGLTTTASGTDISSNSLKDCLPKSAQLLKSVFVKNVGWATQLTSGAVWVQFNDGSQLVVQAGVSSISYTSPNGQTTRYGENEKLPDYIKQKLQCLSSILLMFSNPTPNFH

[2] = test system: HeLa Centrin1-GFP cells; assay: Plk4 foci scoring at different time points of Cen-TCO incubation; type: cell-based, human; conditions: 500 nM
Procedure: We conjugated trans-cyclooctene to the previously obtained compound (4) to obtain Cen-TCO (3) using the synthetic route outlined in Scheme S2. The resulting Cen-TCO (3) reacted with an appropriate tetrazine, such as SiR650-TetH (4a) (Figure S4A). The reaction was followed by LC-MS, and the data confirmed quantitative conversion of Cen-TCO (3) to the appropriate cycloaddition product Cen-Click-SiR650 (Figure S4A, D). […] To assess the phenotype caused by Cen-TCO (3), we incubated HeLa cells expressing Centrin1-GFP with different concentrations of Cen-TCO (3) for 24 h, followed by scoring of Centrin1-GFP foci numbers (Figure S5B). […] Next, we tested Cen-TCO (3) in combination with different tetrazine partners to determine the optimal combination for our bio-orthogonal strategy. We used four different tetrazines to visualize overexpressed GFP-Plk4(K41M) in HeLa cells following 1 h of incubation with Cen-TCO (500 nM) (Figure S6). […] Furthermore, the high fluorogenicity of HD653 makes it particularly well suited for live cell imaging.[33] Therefore, the combination of Cen-TCO (3) and HD653 (5) was further used for live cell imaging of endogenous Plk4 (Figure 4A). HeLa cells expressing Centrin1-GFP were incubated with 500 nM Cen-TCO (3) for 1 h, followed by a 15 min incubation with 500 nM HD653 (5) and imaged with a confocal microscope without prior washing. Despite the high unspecific background signal, a clear focus could be detected at centrioles (Figure 4B). […] The fwhm of the circular signal in this case was 368 ± 26 (N = 6) (Figure S7B), which corresponds to the size measured with overexpressed GFP-Plk4(K41M) (see Figure 3D), and approximately that of the torus region surrounding the centriole.[40] […] To assess this and test whether early time points after Cen-TCO addition may be immune to this problem, HeLa Centrin1-GFP cells were incubated with Cen-TCO (3) and fixed at different time points thereafter, after which the number of centriolar Plk4 foci per cell was quantified (Figure S8B–F). […]

COc1c(Nc2cc(C)[nH]n2)nc(Sc2ccc(S(=O)(=O)Cc3cccc([N+](=O)[O-])c3F)cc2F)nc1N1CCC(CC(=O)NCCNC(=O)c2ccc(C(=O)O)c(C3=C4C=CC(=N)C=C4[Si](C)(C)c4cc(N)ccc43)c2)CC1 [2d]
diameter of the circular SiR595 signal [1]: 373 ± 36 nm

COc1c(Nc2cc(C)[nH]n2)nc(Sc2ccc(S(=O)(=O)Cc3cccc([N+](=O)[O-])c3F)cc2F)nc1N1CCC(CC(=O)NCCNC(=O)OC2CC/C=C/CCC2)CC1 (stereo not shown) [compound 3]
effect on Plk4 foci numbers ([2]; after 1 h of incubation): no perturbation
effect on Plk4 foci numbers around centrioles ([2]; after 4 h): significant increase
effect on Plk4 foci numbers ([2]; up to 4 h of incubation): only minor perturbations
